Data on 1 compound can be found in patent US20160271090A1, “FRATAXIN ENHANCER” (TOKYO UNIVERSITY OF AGRICULTURE, priority 2013, published 2016).

The assay has as its system frataxin protein in human normal fibroblast strain WI-38. The experiment in a line: Western blot of frataxin protein in WI-38 cells cultured with ALA. It counts as cell-based. Conditions: ALA 2 mM for 2 hours in DMEM without FBS, then 24 hours in DMEM with 10% FBS, compared to Sample 2 (medium without ALA).

Each structure is given as a SMILES string.

Procedure: • (i) Human normal fibroblast strain WI-38 was cultured in Dulbecco's modified Eagle medium (DMEM) comprising 10% fetal bovine serum (FBS) under 5% CO2. (ii) 5-Aminolevulinic acid (ALA) was added at a final concentration of 2 mM to DMEM without FBS, and cells of (i) were cultured in said medium at 37° C. for 2 hours to allow ALA to be incorporated. (iii) Then, the cells were transferred to DMEM containing 10% FBS and cultured at 37° C. for 24 hours. (iv) The cells were collected by trypsin treatment, washed with phosphate buffered saline (PBS), and then suspended in SDS sample buffer (50 mM Tris-HCl, pH6.8, 2% SDS, 2.5%-mercaptoethanol, 10% glycerol, and 0.01% bromophenol blue), and heated at 100° C. for 5 minutes to allow lysis. […] In this Example, the said cell lysate is referred to as “Sample 2.” Samples 1 and 2 were subjected to 12% SDS-polyacrylamide electrophoresis, and Western blot analysis employing an anti-human frataxin antibody (from Santa Cruz Biotechnology, cat. #sc-25820) and an HRP-labeled anti-rabbit IgG secondary antibody (from GE Healthcare, cat. #N[MUT]) was performed by conventional means. […]

With `NCC(=O)CCC(=O)O` [ALA, 5-aminolevulinic acid], the “amount of frataxin protein (Western blot, FIG. 1)” value is on record as “clear increase”.
